How the values were obtained:
ECC4 = assay: cells; assay type: functional, cell-based; settings: Homo sapiens;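 note: growth inhibition of ECC4 cells, read out with a cell viability assay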
Description: SANGER: Inhibition of human ECC4 cell growth in a cell viability assay.

GDM-1 = assay: cells; assay type: functional, cell-based; settings: Homo sapiens;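 note: cell viability readout used to measure growth inhibition of human GDM-1 cells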
Description: SANGER: Inhibition of human GDM-1 cell growth in a cell viability assay.

CAL-39 = assay: cells; assay type: functional, cell-based, Homo sapiens; settings: Homo sapiens, CAL-39;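 note: cell viability assay measuring growth inhibition of CAL-39 cells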
Description: SANGER: Inhibition of human CAL-39 cell growth in a cell viability assay.

MONO-MAC-6 = assay: cells; assay type: functional, cell-based; settings: Homo sapiens;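 note: cell viability assay measuring growth inhibition of human MONO-MAC-6 cells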
Description: SANGER: Inhibition of human MONO-MAC-6 cell growth in a cell viability assay.

HCC70 = assay: cells; assay type: functional, cell-based, Homo sapiens; settings: Homo sapiens, HCC70;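 note: cell viability assay measuring how strongly the compound suppresses proliferation of HCC70 cells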
Description: SANGER: Inhibition of human HCC70 cell growth in a cell viability assay.

OS-RC-2 = assay: cells; assay type: functional, cell-based, Homo sapiens; settings: Homo sapiens, OS-RC-2;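 note: growth inhibition of human OS-RC-2 cells, measured by a cell viability assay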
Description: SANGER: Inhibition of human OS-RC-2 cell growth in a cell viability assay.

NCI-H460 = assay: cells; assay type: functional, cell-based, Homo sapiens; settings: Homo sapiens, NCI-H460;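 note: cell viability assay scoring growth inhibition of human NCI-H460 cells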
Description: SANGER: Inhibition of human NCI-H460 cell growth in a cell viability assay.

8-MG-BA = assay: cells; assay type: functional, cell-based, Homo sapiens; settings: Homo sapiens, 8-MG-BA;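 note: growth inhibition of 8-MG-BA cells, read out with a cell viability assay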
Description: SANGER: Inhibition of human 8-MG-BA cell growth in a cell viability assay.

NCI-H524 = assay: cells; assay type: functional, cell-based; settings: Homo sapiens;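 note: growth inhibition of human NCI-H524 cells, read out through a cell viability assay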
Description: SANGER: Inhibition of human NCI-H524 cell growth in a cell viability assay.

SK-OV-3 = assay: cells; assay type: functional, cell-based, Homo sapiens; settings: Homo sapiens, SK-OV-3;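 note: growth inhibition of SK-OV-3 human cells, read out with a cell viability assay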
Description: SANGER: Inhibition of human SK-OV-3 cell growth in a cell viability assay.

NALM-6 = assay: cells; assay type: functional, cell-based; settings: Homo sapiens;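 note: growth inhibition of NALM-6 cells, read out with a cell viability assay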
Description: SANGER: Inhibition of human NALM-6 cell growth in a cell viability assay.

LU-165 = assay: cells; assay type: functional, cell-based; settings: Homo sapiens
Description: SANGER: Inhibition of human LU-165 cell growth in a cell viability assay.

KARPAS-299 = assay: cells; assay type: functional, cell-based; settings: Homo sapiens
Description: SANGER: Inhibition of human KARPAS-299 cell growth in a cell viability assay.

K5 = assay: cells; assay type: functional, cell-based, Homo sapiens; settings: Homo sapiens, K5
Description: SANGER: Inhibition of human K5 cell growth in a cell viability assay.

C8166 = assay: cells; assay type: functional, cell-based; settings: Homo sapiens;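 note: growth inhibition of human C8166 cells measured by a cell viability assay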
Description: SANGER: Inhibition of human C8166 cell growth in a cell viability assay.

NCI-H2141 = assay: cells; assay type: functional, cell-based; settings: Homo sapiens;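 note: growth inhibition of human NCI-H2141 cells, read out with a cell viability assay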
Description: SANGER: Inhibition of human NCI-H2141 cell growth in a cell viability assay.

COLO-679 = assay: cells; assay type: functional, cell-based, Homo sapiens; settings: Homo sapiens, COLO-679
Description: SANGER: Inhibition of human COLO-679 cell growth in a cell viability assay.

NCI-H2227 = assay: cells; assay type: functional, cell-based; settings: Homo sapiens;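 note: growth inhibition of the human cell line, read out with a cell viability assay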
Description: SANGER: Inhibition of human NCI-H2227 cell growth in a cell viability assay.

RL = assay: cells; assay type: functional, cell-based; settings: Homo sapiens
Description: SANGER: Inhibition of human RL cell growth in a cell viability assay.

EFO-21 = assay: cells; assay type: functional, cell-based, Homo sapiens; settings: Homo sapiens, EFO-21;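 note: growth inhibition of EFO-21 cells measured with a viability assay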
Description: SANGER: Inhibition of human EFO-21 cell growth in a cell viability assay.

Raji = assay: cells; assay type: functional, cell-based; settings: Homo sapiens;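 note: cell viability assay measuring inhibition of Raji cell growth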
Description: SANGER: Inhibition of human Raji cell growth in a cell viability assay.

NCI-H187 = assay: cells; assay type: functional, cell-based; settings: Homo sapiens;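 note: growth inhibition of NCI-H187 cells, read out as cell viability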
Description: SANGER: Inhibition of human NCI-H187 cell growth in a cell viability assay.

K052 = assay: cells; assay type: functional, cell-based; settings: Homo sapiens;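 note: Read-out from a cell viability assay, IC50 reflecting suppression of K052 cell growth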
Description: SANGER: Inhibition of human K052 cell growth in a cell viability assay.

NCI-H2030 = assay: cells; assay type: functional, cell-based, Homo sapiens; settings: Homo sapiens, NCI-H2030;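 note: growth inhibition of human NCI-H2030 cells, read out by a cell viability assay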
Description: SANGER: Inhibition of human NCI-H2030 cell growth in a cell viability assay.

NCI-H345 = assay: cells; assay type: functional, cell-based; settings: Homo sapiens;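 note: growth inhibition of NCI-H345 cells measured with a cell viability assay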
Description: SANGER: Inhibition of human NCI-H345 cell growth in a cell viability assay.

SK-N-AS = assay: cells; assay type: functional, cell-based, Homo sapiens; settings: Homo sapiens, SK-N-AS;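 note: growth inhibition of human SK-N-AS cells, measured with a cell viability assay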
Description: SANGER: Inhibition of human SK-N-AS cell growth in a cell viability assay.

WSU-NHL = assay: cells; assay type: functional, cell-based; settings: Homo sapiens;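 note: growth inhibition of human WSU-NHL cells, read out with a cell viability assay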
Description: SANGER: Inhibition of human WSU-NHL cell growth in a cell viability assay.

BC-3 = assay: cells; assay type: functional, cell-based; settings: Homo sapiens;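 note: cell viability assay measuring growth inhibition of human BC-3 cells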
Description: SANGER: Inhibition of human BC-3 cell growth in a cell viability assay.

NCI-H716 = assay: cells; assay type: functional, cell-based; settings: Homo sapiens;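 note: growth inhibition of human NCI-H716 cells, measured by a cell viability assay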
Description: SANGER: Inhibition of human NCI-H716 cell growth in a cell viability assay.

KYSE-70 cell line = assay: cells; assay type: functional, cell-based, Homo sapiens; settings: Homo sapiens, KYSE-70;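 note: cell viability assay read-out, with IC50 expressing suppression of KYSE-70 cell growth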
Description: SANGER: Inhibition of human KYSE-70 cell growth in a cell viability assay.

YT = assay: cells; assay type: functional, cell-based; settings: Homo sapiens
Description: SANGER: Inhibition of human YT cell growth in a cell viability assay.

MEL-JUSO = assay: cells; assay type: functional, cell-based, Homo sapiens; settings: Homo sapiens, MEL-JUSO;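 note: growth inhibition of human MEL-JUSO cells, read out with a cell viability assay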
Description: SANGER: Inhibition of human MEL-JUSO cell growth in a cell viability assay.

NCI-H28 = assay: cells; assay type: functional, cell-based, Homo sapiens; settings: Homo sapiens, NCI-H28;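 note: growth inhibition of human NCI-H28 cells, read out as cell viability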
Description: SANGER: Inhibition of human NCI-H28 cell growth in a cell viability assay.

BEN = assay: cells; assay type: functional, cell-based, Homo sapiens; settings: Homo sapiens, BEN;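 note: growth inhibition of the BEN cell line, read out with a cell viability assay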
Description: SANGER: Inhibition of human BEN cell growth in a cell viability assay.

SK-MM-2 = assay: cells; assay type: functional, cell-based; settings: Homo sapiens;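 note: growth inhibition of human SK-MM-2 cells, read out with a cell viability assay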
Description: SANGER: Inhibition of human SK-MM-2 cell growth in a cell viability assay.

SNU-C1 = assay: cells; assay type: functional, cell-based; settings: Homo sapiens;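 note: growth inhibition of SNU-C1 human cells, read out by a cell viability assay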
Description: SANGER: Inhibition of human SNU-C1 cell growth in a cell viability assay.

THP-1 = assay: cells; assay type: functional, cell-based; settings: Homo sapiens;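 note: growth inhibition of THP-1 cells, read out via a cell viability assay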
Description: SANGER: Inhibition of human THP-1 cell growth in a cell viability assay.

CAS-1 = assay: cells; assay type: functional, cell-based, Homo sapiens; settings: Homo sapiens, CAS-1;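 note: growth inhibition of CAS-1 cells, measured with a cell viability assay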
Description: SANGER: Inhibition of human CAS-1 cell growth in a cell viability assay.

P31-FUJ = assay: cells; assay type: functional, cell-based; settings: Homo sapiens;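 note: growth inhibition of P31-FUJ cells, read out with a viability assay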
Description: SANGER: Inhibition of human P31-FUJ cell growth in a cell viability assay.

MHH-CALL-2 = assay: cells; assay type: functional, cell-based; settings: Homo sapiens;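 note: growth inhibition of the cell line, read out in a cell viability assay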
Description: SANGER: Inhibition of human MHH-CALL-2 cell growth in a cell viability assay.

CESS = assay: SANGER: Inhibition of human CESS cell growth in a cell viability assay.; assay type: functional, cell-based
MDA-MB-361 = assay: cells; assay type: functional, cell-based, Homo sapiens; settings: Homo sapiens, MDA-MB-361
U-698-M = assay: cells; assay type: functional, cell-based; settings: Homo sapiens
Description: SANGER: Inhibition of human U-698-M cell growth in a cell viability assay.

MKN-28 = assay: cells; assay type: functional, cell-based, Homo sapiens; settings: Homo sapiens, MKN-28;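 note: cell viability assay read-out, IC50 reflects suppression of growth of human MKN-28 cells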
Description: SANGER: Inhibition of human MKN28 cell growth in a cell viability assay.

NCI-H1963 = assay: cells; assay type: functional, cell-based; settings: Homo sapiens;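 note: cell growth inhibition of the human line, determined with a cell viability assay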
Description: SANGER: Inhibition of human NCI-H1963 cell growth in a cell viability assay.

KGN = assay: cells; assay type: functional, cell-based, Homo sapiens; settings: Homo sapiens, KGN;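 note: growth inhibition of KGN cells, read out with a cell viability assay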
Description: SANGER: Inhibition of human KGN cell growth in a cell viability assay.

REH = assay: cells; assay type: functional, cell-based; settings: Homo sapiens;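 note: growth inhibition of REH cells determined with a cell viability read-out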
Description: SANGER: Inhibition of human REH cell growth in a cell viability assay.

OPM-2 = assay: cells; assay type: functional, cell-based; settings: Homo sapiens;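 note: growth of OPM-2 cells measured with a viability assay, IC50 for suppression of proliferation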
Description: SANGER: Inhibition of human OPM-2 cell growth in a cell viability assay.

IM-9 = assay: SANGER: Inhibition of human IM-9 cell growth in a cell viability assay.; assay type: functional, cell-based

Cc1cnc(-c2cnc(NCCNc3ccc(C#N)cn3)nc2-c2ccc(Cl)cc2Cl)[nH]1 [LADUVIGLUSIB]
IC50 (ECC4): > 2560 nM | IC50 (GDM-1): > 2560 nM | IC50 (CAL-39): > 2560 nM | IC50 (MONO-MAC-6): > 2560 nM | IC50 (HCC70): > 2560 nM | IC50 (OS-RC-2): > 2560 nM | IC50 (NCI-H460): > 2560 nM | IC50 (8-MG-BA): > 2560 nM | IC50 (NCI-H524): > 2560 nM | IC50 (SK-OV-3): > 2560 nM | IC50 (NALM-6): > 2560 nM | IC50 (LU-165): > 2560 nM | IC50 (KARPAS-299): > 2560 nM | IC50 (K5): > 2560 nM | IC50 (C8166): > 2560 nM | IC50 (NCI-H2141): > 2560 nM | IC50 (COLO-679): > 2560 nM | IC50 (NCI-H2227): > 2560 nM | IC50 (RL): > 2560 nM | IC50 (EFO-21): > 2560 nM | IC50 (Raji): > 2560 nM | IC50 (NCI-H187): > 2560 nM | IC50 (K052): > 2560 nM | IC50 (NCI-H2030): > 2560 nM | IC50 (NCI-H345): > 2560 nM | IC50 (SK-N-AS): > 2560 nM | IC50 (WSU-NHL): > 2560 nM | IC50 (BC-3): > 2560 nM | IC50 (NCI-H716): > 2560 nM | IC50 (KYSE-70 cell line): > 2560 nM | IC50 (YT): > 2560 nM | IC50 (MEL-JUSO): > 2560 nM | IC50 (NCI-H28): > 2560 nM | IC50 (BEN): > 2560 nM | IC50 (SK-MM-2): > 2560 nM | IC50 (SNU-C1): > 2560 nM | IC50 (THP-1): > 2560 nM | IC50 (CAS-1): > 2560 nM | IC50 (P31-FUJ): > 2560 nM | IC50 (MHH-CALL-2): > 2560 nM | IC50 (CESS): > 2560 nM | IC50 (MDA-MB-361): > 2560 nM | IC50 (U-698-M): > 2560 nM | IC50 (MKN-28): > 2560 nM | IC50 (NCI-H1963): > 2560 nM | IC50 (KGN): > 2560 nM | IC50 (REH): > 2560 nM | IC50 (OPM-2): > 2560 nM | IC50 (IM-9): > 2560 nM

C[C@]1(O)C[C@@H](c2nc(-c3ccc4ccc(-c5ccccc5)nc4c3)c3c(N)nccn32)C1 [LINSITINIB]
IC50 (ECC4): > 2560 nM | IC50 (GDM-1): 137 nM | IC50 (CAL-39): > 2560 nM | IC50 (MONO-MAC-6): > 2560 nM | IC50 (HCC70): > 2560 nM | IC50 (OS-RC-2): > 2560 nM | IC50 (NCI-H460): > 2560 nM | IC50 (8-MG-BA): > 2560 nM | IC50 (NCI-H524): > 2560 nM | IC50 (SK-OV-3): > 2560 nM | IC50 (NALM-6): > 2560 nM | IC50 (LU-165): > 2560 nM | IC50 (KARPAS-299): > 2560 nM | IC50 (K5): > 2560 nM | IC50 (C8166): > 2560 nM | IC50 (NCI-H2141): > 2560 nM | IC50 (COLO-679): > 2560 nM | IC50 (NCI-H2227): > 2560 nM | IC50 (RL): > 2560 nM | IC50 (EFO-21): > 2560 nM | IC50 (Raji): > 2560 nM | IC50 (NCI-H187): > 2560 nM | IC50 (K052): > 2560 nM | IC50 (NCI-H2030): > 2560 nM | IC50 (NCI-H345): > 2560 nM | IC50 (SK-N-AS): > 2560 nM | IC50 (WSU-NHL): > 2560 nM | IC50 (BC-3): > 2560 nM | IC50 (NCI-H716): > 2560 nM | IC50 (KYSE-70 cell line): > 2560 nM | IC50 (YT): > 2560 nM | IC50 (MEL-JUSO): 1160 nM | IC50 (NCI-H28): > 2560 nM | IC50 (BEN): > 2560 nM | IC50 (SK-MM-2): 655 nM | IC50 (SNU-C1): 293 nM | IC50 (THP-1): > 2560 nM | IC50 (CAS-1): > 2560 nM | IC50 (P31-FUJ): > 2560 nM | IC50 (MHH-CALL-2): > 2560 nM | IC50 (CESS): > 2560 nM | IC50 (MDA-MB-361): > 2560 nM | IC50 (U-698-M): > 2560 nM | IC50 (MKN-28): > 2560 nM | IC50 (NCI-H1963): > 2560 nM | IC50 (KGN): > 2560 nM | IC50 (REH): > 2560 nM | IC50 (OPM-2): 2100 nM | IC50 (IM-9): > 2560 nM

C=CCc1cccc(/C=N/NC(=O)CN2CCN(Cc3ccccc3)CC2)c1O [PAC-1]
IC50 (ECC4): > 2560 nM | IC50 (GDM-1): > 2560 nM | IC50 (CAL-39): > 2560 nM | IC50 (MONO-MAC-6): > 2560 nM | IC50 (HCC70): > 2560 nM | IC50 (OS-RC-2): > 2560 nM | IC50 (NCI-H460): > 2560 nM | IC50 (8-MG-BA): > 2560 nM | IC50 (NCI-H524): > 2560 nM | IC50 (SK-OV-3): 1660 nM | IC50 (NALM-6): 703 nM | IC50 (LU-165): > 2560 nM | IC50 (KARPAS-299): > 2560 nM | IC50 (K5): > 2560 nM | IC50 (C8166): 1220 nM | IC50 (NCI-H2141): > 2560 nM | IC50 (COLO-679): 803 nM | IC50 (NCI-H2227): > 2560 nM | IC50 (RL): > 2560 nM | IC50 (EFO-21): > 2560 nM | IC50 (Raji): 2130 nM | IC50 (NCI-H187): > 2560 nM | IC50 (K052): > 2560 nM | IC50 (NCI-H2030): > 2560 nM | IC50 (NCI-H345): > 2560 nM | IC50 (SK-N-AS): > 2560 nM | IC50 (WSU-NHL): > 2560 nM | IC50 (BC-3): > 2560 nM | IC50 (NCI-H716): > 2560 nM | IC50 (KYSE-70 cell line): > 2560 nM | IC50 (YT): > 2560 nM | IC50 (MEL-JUSO): > 2560 nM | IC50 (NCI-H28): > 2560 nM | IC50 (BEN): > 2560 nM | IC50 (SK-MM-2): > 2560 nM | IC50 (SNU-C1): > 2560 nM | IC50 (THP-1): > 2560 nM | IC50 (CAS-1): > 2560 nM | IC50 (P31-FUJ): > 2560 nM | IC50 (MHH-CALL-2): > 2560 nM | IC50 (CESS): 1490 nM | IC50 (MDA-MB-361): > 2560 nM | IC50 (U-698-M): > 2560 nM | IC50 (MKN-28): > 2560 nM | IC50 (NCI-H1963): > 2560 nM | IC50 (KGN): 2150 nM | IC50 (REH): 944 nM | IC50 (OPM-2): > 2560 nM | IC50 (IM-9): > 2560 nM
